# Source: patent publication US20040224880A1, “Regulation of gastric acid secretion by inwardly rectifying k+ channels” (Beth Israel Deaconess Medical Center, Inc., priority 2001, published 2004)
# Entries after “also recorded” stand apart in the source; their conditions may differ.
# Experiments:
# [1] = tested on: cimetidine-inhibited tissues; assay: Resistance (R) of cimetidine-inhibited gastric mucosa tissues; assay type: cell-based, bullfrog; settings: pH 7.2
# Experimental: Tissues were incubated with cimetidine until acid secretion reached 0 μEq/hr cm^2; experiments were performed only if the R of paired tissues was different by 10% or less.
# rabbit gastric glands = assay: Intracellular ATP in rabbit gastric glands; assay type: cell-based
# bullfrog gastric mucosa [2] = assay: Acid secretion of frog (bullfrog) gastric mucosa stimulated with histamine/carbachol or forskolin; assay type: cell-based
# bullfrog gastric mucosa [3] = settings: cited from earlier work
# bullfrog gastric mucosa [4] = assay type: cell-based
# Experimental: FIG. 1B Electrophysiology in the bullfrog gastric mucosa. […] Removal of NH4Cl was followed by a complete recovery of R within 30 min. Data were obtained from 21 experiments and are expressed as the mean±SEM.
# FIG. 1C Electrophysiology in the bullfrog gastric mucosa. […] Removal of NH4Cl was followed by a complete recovery of PD within 30 min. Data were obtained from 21 experiments and are expressed as the mean±SEM.
# [5] = tested on: Ca^2+-dependent inwardly rectifying K^+ channel; settings: HeLa cells (Diaz et al.); cited from earlier work
structure (smiles),measurement,setting,value
"Cl.N [NH4Cl, ammonium chloride]",effect of NH4Cl on R of cimetidine-inhibited tissues (in words),[1],does not cause an increase in R; also recorded: no change in R
same,effect on concentration of ATP (in words),rabbit gastric glands,statistically significant reduction in the concentration of ATP
same,intracellular ATP,rabbit gastric glands,3.76±0.12 μM/mg protein
same,"intracellular ATP, % of control",rabbit gastric glands,83 % of control
same,Rate of decline in acid secretion,bullfrog gastric mucosa [2],−0.2881 (μEq/h · cm^2)/min
same,acid secretion after NH4Cl washed from the nutrient bath,bullfrog gastric mucosa [2],5.51±0.16 μEq/hr cm^2
same,effect of 1-9 mM NH4Cl on acid secretion,bullfrog gastric mucosa [2],inhibition of acid secretion
same,least (minimum) concentration required for complete inhibition of acid secretion within 30 min,bullfrog gastric mucosa [2],10 mM
same,rate of decline of acid secretion relative to cimetidine,bullfrog gastric mucosa [2],3.6 times faster
same,rate of decline of acid secretion relative to omeprazole,bullfrog gastric mucosa [2],3.2 times faster
same,rate of inhibition of acid secretion relative to cimetidine or omeprazole,bullfrog gastric mucosa [2],more than 3 times faster
same,time to complete inhibition of stimulated acid secretion,bullfrog gastric mucosa [2],≤ 30 min
same,rate of acid secretion after NH4Cl,bullfrog gastric mucosa [2]; pH 7.2,0±0 μEq/hr cm^2
same,effect of luminal NH4Cl on tissue resistance (Yanaka et al.),bullfrog gastric mucosa [3],significant decrement in tissue resistance
same,effect of basolateral NH4Cl on acid secretion (Yanaka et al.),bullfrog gastric mucosa [3]; pH 7.2,rapidly and completely inhibits acid secretion
same,PD after NH4Cl,bullfrog gastric mucosa [4],28.48±1.47 mvolts
same,PD after NH4Cl washed out,bullfrog gastric mucosa [4],7.95±2.65 mvolts
same,R after NH4Cl,bullfrog gastric mucosa [4],306.5±16.11 Ohm cm^2
same,R after NH4Cl washed out,bullfrog gastric mucosa [4],159.0±16.83 Ohm cm^2
same,effect on potential difference (PD) of stimulated tissues (in words),bullfrog gastric mucosa [4],increase in potential difference (PD)
same,effect on resistance (R) of stimulated tissues (in words),bullfrog gastric mucosa [4],increase in resistance (R)
N [NH4^+],inhibition of Ca2+-dependent inwardly rectifying K+ channel activity,[5],potent inhibitor
